Source: US20230220029A1, “ANTIVIRAL […] AND USES THEREOF” (VIRGINIA COMMONWEALTH UNIVERSITY, priority 2020, published 2023)
Where a SMILES comes first, the peptide text is derived from it.

Key:
SARS-CoV-2, USA-WA1/2020 = conditions: USA-WA1/2020, 1 h, 200 μM
[1] = target: HRP-conjugated-S-protein-RBD binding to hACE2 (Severe acute respiratory syndrome coronavirus 2, UniProt P0DTC2); assay: biochemical; design: species or system SARS-CoV-2; conditions: sVNT ELISA, dose-dependent, FIG. 4
[2] = Peptide stability by repeating the sVNT ELISA two months apart with the same solubilized peptide; assay type: physicochemical; conditions: ELISA tests two months apart with the same solubilized peptide
Excerpt: FIGS. 4A-B. Surrogate virus test results for peptide 122023-C. FIG. 4A are results obtained in a first experiment and FIG. 4B are results obtained in a second experiment two months later using the same solubilized peptide.

[3] = target: HRP-conjugated-S-protein-RBD (SARS-CoV-2), P0DTC2

## CC(C)C[C@H](NC(=O)[C@H](CCC(N)=O)NC(=O)[C@H](CCC(=O)O)NC(=O)[C@H](C)NC(=O)[C@H](Cc1ccccc1)NC(=O)[C@H](CCCNC(=N)N)NC(=O)[C@H](CCC(=O)O)NC(=O)[C@H](CC(C)C)NC(=O)[C@H](Cc1ccccc1)NC(=O)[C@H](Cc1ccc(O)cc1)NC(=O)[C@H](CCCCN)NC(=O)[C@H](CC(C)C)NC(=O)[C@H](CCC(N)=O)NC(=O)[C@H](CCC(N)=O)NC(=O)[C@@H](N)CCC(=O)O)C(=O)N[C@@H](CCC(=O)O)C(=O)N[C@@H](CCC(N)=O)C(=O)N[C@@H](CC(C)C)C(=O)N[C@@H](Cc1ccccc1)C(=O)N[C@@H](Cc1ccc(O)cc1)C(=O)N[C@@H](CCC(N)=O)C(=O)N[C@@H](CO)C(=O)N[C@@H](CO)C(=O)O [Peptide 122023-A] (H-EQQLKYFLERFAEQLEQLFYQSS-OH; N-terminus and C-terminus assumed)
SARS-CoV-2, USA-WA1/2020
  inhibition at the highest concentration studied: up to 95%

## CC(C)C[C@H](NC(=O)[C@H](CC(=O)O)NC(=O)[C@H](CCC(=O)O)NC(=O)[C@H](CC(C)C)NC(=O)[C@H](CCC(N)=O)NC(=O)[C@H](CCC(=O)O)NC(=O)[C@H](CC(N)=O)NC(=O)[C@H](Cc1ccccc1)NC(=O)[C@H](CCCNC(=N)N)NC(=O)[C@H](CCC(=O)O)NC(=O)[C@H](CC(C)C)NC(=O)[C@H](Cc1ccccc1)NC(=O)[C@H](Cc1ccc(O)cc1)NC(=O)[C@H](CCCCN)NC(=O)[C@H](CC(C)C)NC(=O)[C@H](CCC(N)=O)NC(=O)[C@H](CCC(N)=O)NC(=O)[C@@H](N)CCC(=O)O)C(=O)N[C@@H](Cc1ccccc1)C(=O)N[C@@H](Cc1ccc(O)cc1)C(=O)N[C@@H](CCC(N)=O)C(=O)N[C@@H](CO)C(=O)N[C@@H](CO)C(=O)O [Peptide 122023-C] (H-EQQLKYFLERFNEQLEDLFYQSS-OH)
[1]
  IC50: ~33.8 nM
[2]
  peptide stability: Excellent peptide stability

B1: peptide 122023-C (peptide)
peptide: EQQLKYFLERFNEQLEDLFYQSS
modifications: not checked
[3]
  IC50: 0.1 µg/mL
